# Experimental data: patent US12146131B2, “Testing apparatus and testing method” (HITACHI HIGH-TECH CORPORATION, priority 2019, dated 2024)
# How the values were obtained:
# Assay type in all cases: cell-based
# bacteria [1] = assay: drug sensitivity test, turbidity measurement of the well after 18 hours of culture; conditions: turbidity after 18 hours from start of culture
# Text: In a drug sensitivity test for bacteria, it is important to measure properties of bacteria and increase or decrease in the number of bacteria, and in a third embodiment, for example, an example applied to the drug sensitivity test will be described. Also in the third embodiment, the fine particle testing apparatus 100 described in the first embodiment can be used. However, the sample solution 108 contains bacteria, a medium component necessary for growth of the bacteria, and an antimicrobial agent to be tested. The fine particle testing apparatus 100 is temperature-adjusted to a temperature suitable for growth of the bacteria, for example, 37° C. […]
# Here, the sensitivity of this bacterium to ampicillin/sulbactam is found to be “proliferation” at a concentration of 0.5/0.25 μg/mL and “suppression” at a concentration of 32/16 μg/mL by turbidity measurement of the well after 18 hours from the start of culture. […] This example has shown that proliferation/suppression is determined at two concentrations of the antimicrobial agent, but actually, the concentration of the drug is more finely changed to determine proliferation/suppression. The minimum antimicrobial agent concentration is referred to as minimum inhibitory concentration (MIC), and the MIC is preferably calculated based on the result of proliferation/suppression. […]
# bacteria [2] = assay: drug sensitivity test, bacterial area value from time-series microscopic images (image processing of first embodiment); conditions: FIG. 9
# Text: (§1) In a drug sensitivity test for bacteria, it is important to measure properties of bacteria and increase or decrease in the number of bacteria, and in a third embodiment, for example, an example applied to the drug sensitivity test will be described. Also in the third embodiment, the fine particle testing apparatus 100 described in the first embodiment can be used. However, the sample solution 108 contains bacteria, a medium component necessary for growth of the bacteria, and an antimicrobial agent to be tested. The fine particle testing apparatus 100 is temperature-adjusted to a temperature suitable for growth of the bacteria, for example, 37° C. Further, a plate having 96 holes or 384 holes can be used as the testing plate 102.
# FIG. 9 is a diagram illustrating a relationship of the area of a bacterial region corresponding to the sum of area values of fine particles obtained by executing the processing of steps 200 to 204 (image processing of the first embodiment) on a plurality of time-series images obtained by the imaging part 105 of the fine particle testing apparatus 100. This measurement result is a result of imaging bacteria cultured for 8 hours in a culture solution containing ampicillin/sulbactam at concentrations of 0.5/0.25 μg/mL and 32/16 μg/mL.
# Pseudomonas aeruginosa [3] = assay: drug sensitivity test, turbidity measurement after 18 hours of culture; conditions: turbidity after 18 hours from start of culture
# Pseudomonas aeruginosa [4] = assay: drug sensitivity test, bacterial area value from time-series microscopic images (image processing of second embodiment); conditions: cultured 12 hours, FIG. 10
# Text: as §1
# In the fine particle testing apparatus 100, an image is acquired by focusing the lens 104 on the vicinity of the well bottom surface of the testing plate 102 for each imaging. However, in a case where the fine particles are bacteria, in particular, highly motile bacteria, even if adjustment is performed for each imaging so as to focus on one well each time, an image with a clear contour may not be acquired, resulting in an image as illustrated in FIGS. 8A to 8B. As an example of such a case, a measurement example using Pseudomonas aeruginosa considered to have high motility as a bacterium different from the result of FIG. 9 will be described (see FIG. 10). […]
substance,measurement,setting,value
ampicillin/sulbactam,sensitivity of bacterium (proliferation/suppression),bacteria [1]; ampicillin/sulbactam 0.5/0.25 μg/mL,proliferation
same,sensitivity of bacterium (proliferation/suppression),bacteria [1]; ampicillin/sulbactam 32/16 μg/mL,suppression
same,bacterial area value over time,"bacteria [2]; ampicillin/sulbactam 0.5/0.25 μg/mL, cultured 8 hours",starts to increase exponentially after 2 hours from the start of culture
same,bacterial area value over time,"bacteria [2]; ampicillin/sulbactam 32/16 μg/mL, within 8 hours from start of culture",substantially unchanged from the initial value
gentamicin,sensitivity of bacterium (proliferation/suppression),Pseudomonas aeruginosa [3]; gentamicin 0.12 μg/mL,proliferation
same,sensitivity of bacterium (proliferation/suppression),Pseudomonas aeruginosa [3]; gentamicin 8 μg/mL,suppression
same,bacterial area value over time,Pseudomonas aeruginosa [4]; gentamicin 0.12 μg/mL,starts to increase exponentially after 4 hours from the start of culture
same,bacterial area value over time,Pseudomonas aeruginosa [4]; gentamicin 8 μg/mL,slightly increases
